Source: patent publication US4368194A, “Pharmacologically active amine boranes” (The United States of America as represented by the …, priority 1981, dated 1983)
Read-outs that look alike come from different tables or passages of the source.

How the values were obtained:
[1] = system: carrageenan induced edema in mouse foot pads; assay: Anti-inflammatory screen (carrageenan induced foot edema); format: in vivo, mice; details: for Anti-inflammatory Screen: 10 mg/kg × 2 intraperitoneally, mice; for inhibition of the carrageenan induced edema in mouse foot pads: text summary of Table II
Method: CF1 male mice (about 30 g) were administered test drugs at 10 mg/kg in 0.05% polysorbate .80-water intraperitoneally 3 hr and 30 min prior to 0.05 ml of 2% carrageenan in 0.9% saline injected into the plantar surface of the right hind foot. Saline injected into the left hind foot served as a base line. After 3 hr, both feet were excised at the tibiotarsal (ankle) joint according to the modified (Roszkowski et al., J. Pharm. Exp. Ther., 179, 114 1971) method of Winter, resulting in an 87 mg net increase in the weight of the control animals' feet.

CF1 male mice = assay: Writhing reflex (acetic acid); format: in vivo; details: for Writhing Reflex: 20 mg/kg intraperitoneally, mice
Method: CF1 male mice were administered test drugs at 20 mg/kg intraperitoneally 20 min (see Hendershat et al., J. Pharmacol Exp. Ther. 125, 237 1959) prior to the administration of 0.5 ml of 0.6% acetic acid (Vingar et al., European J. PHarmacol, 37, 23 1976). After 5 min the number of stretches, characterized by repeated contractures of the abdominal musculature accompanied by extension of the hind limbs, was counted for the next 10 min. The control mice had 78 stretch reflexes per 10 min.

Acid phosphatase [2] = assay: Lysosomal free acid phosphatase activity, liver homogenate; format: biochemical, rats; details: 5 μmoles, in vitro; 20 min
Method: (§1) Lysosomal enzymatic assays - Sprague Dawley rats (about 160 g) were sacrificed, the liver excised, and a 10% homogenate (4x) in 0.25 M sucrose and 0.001 M (ethylenedinitrilo) tetra acetic acid, ph 7.2 was prepared.
(§2) Acid phosphatase activity (Gianetto et al., Biochem J., 59, 433 1955) was carried out by incubating with 0.1 Mβ-glycerol phosphate in 0.1 M acetate, pH 5.0 with 5 μmoles of test drugs in 1% carboxymethylcellulose (CMC) for 20 min with liver homogenate and 60 min with resuspended PMNs. Lysosome enzymes were released by 0.02% alkyl phenoxy polyethoxy ethanol-100 to obtain the total enzymatic activity. The reaction was stopped with 10% trichloroacetic acid and the solution centrifuged. Aliquots of the supernatant were assayed for inorganic phophate content by the method of Chen et al., Anal Chem., 28, 1756 (1956). Percent free acid phosphatase was calculated. Cathepsin activity was determined in an analagous manner except the substrate used was 2% azocasein (Schleuning et al., Methods in Enzymology, XLV, 330 1976) in 0.1 M acetate buffer pH 5.0. The supernatant was assayed for acid soluble peptide fragments at 366 nm. Percent free cathepsin activity was calculated.

Cathepsin [3] = assay: Lysosomal free cathepsin activity, liver homogenate; format: biochemical, rats; details: 5 μmoles; for Liver % Free Cathepsin Activity, pH5: in vitro, 20 min
Method: as §1, §2

Acid phosphatase [4] = assay: Lysosomal free acid phosphatase activity, PMNs; format: cell-based; details: 5 μmoles, in vitro; 60 min
Method: (§3) Polymorphonuclear neutrophils (PMNs) were collected from the peritoneal cavity four hr after the injection of 35 ml of 0.5% oyster glycogen in isotonic saline (Orange et al., J. Exp. Med., 127, 767 1968). The PMNs were centrifuged down at 800 g for 20 min, washed, and resuspended in minumen essential medium (MEM) with 10% fetal calf serum pH 7.4.
as §2

Cathepsin [5] = assay: Lysosomal free cathepsin activity, PMNs; format: cell-based; details: 5 μmoles; for PMNs % Free Cathespin Activity, pH5: in vitro, 60 min
Method: as §3, §2

cAMP levels in PMNs = assay: Cyclic-3',5'-adenosine monophosphate levels (cAMP) in PMNs; format: cell-based; details: 1 h
Method: as §3
Isolated PMNs were incubated with test drugs at 5μ moles for 1 hr at 37° C. in MEM at pH 7.4. The reaction was stopped with 6% trichloroacetic acid. The cyclic-3',5'-adenosine monophosphate levels were determined by the radioimmunoassay of Gilman, Proc. Natl. Acad. Sci. (USA), 67, 305 (1970), using 3H(G)-cyclic-3',5'-adenosine monophosphate (39.8 Cu/m mol). Results were calculated in p mole/10^7 PMNs cells.

[6] = target: T1, prostaglandin synthetase from beef seminal vesicle (Bos taurus, UniProt O62664); assay: Prostaglandin synthetase activity; format: biochemical; details: 10^-6 M; for inhibition at 1 µM: read-out: inhibition of prostaglandin synthesis; for activity at 1 µM: 1 h, read-out: Prostaglandin Synthesis
T1 construct: purchased; host or cells: beef seminal vesicle
T1 sequence (O62664 25-600): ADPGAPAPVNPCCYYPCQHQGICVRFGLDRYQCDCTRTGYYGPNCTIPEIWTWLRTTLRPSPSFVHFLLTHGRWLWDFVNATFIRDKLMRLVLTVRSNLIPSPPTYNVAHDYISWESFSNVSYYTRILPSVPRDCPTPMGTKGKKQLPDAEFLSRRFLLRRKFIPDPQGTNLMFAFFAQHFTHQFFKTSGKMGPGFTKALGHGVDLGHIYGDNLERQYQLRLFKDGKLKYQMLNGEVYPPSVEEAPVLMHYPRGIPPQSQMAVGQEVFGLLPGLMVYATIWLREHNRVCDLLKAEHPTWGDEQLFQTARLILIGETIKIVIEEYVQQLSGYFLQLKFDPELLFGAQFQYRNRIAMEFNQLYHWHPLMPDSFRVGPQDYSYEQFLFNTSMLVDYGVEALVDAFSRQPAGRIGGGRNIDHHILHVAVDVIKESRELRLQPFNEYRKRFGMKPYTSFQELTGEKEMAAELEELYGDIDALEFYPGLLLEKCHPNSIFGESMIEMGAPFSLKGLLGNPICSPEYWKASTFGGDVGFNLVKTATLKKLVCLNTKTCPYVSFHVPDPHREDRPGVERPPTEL
Method: After 1 hr at 37° C. the reaction was stopped with 1 N HCl and extracted with ethyl ether and evaporated. […] The plates were dried and developed in iodine vapor and with the use of prostaglandin standards the appropriate areas were scraped and counted for ^3 H content. Indometacin was used as a standard at 10^-4 M concentration. Test drugs were used at 10^-6 M.

liver mitochondria [7] = assay: Oxidative phosphorylation, succinate as substrate; format: biochemical, rats; details: 5 μmoles; for Oxidative Phosphorylation Succinate State 3: ADP stimulated respiration; for Oxidative Phosphorylation Succinate State 4: basal respiration
Method: (§4) Basal and adenosine diphosphate stimulated respiration on 10% liver homogenates was measured using succinate or αketoglutarate as substrate. See Glatt, et al., supra. The reaction vessel contained sucrose 55μ moles, KCl 22μ moles, K2 HPO4 22μ moles, test compounds at 5μ moles in 1% CMC and sodium succinate 90μ moles or αketoglutarate 60μ moles in a total volume of 1.8 ml. […] The rate of respiration was calculated at μl of O2 consumed/hr/mg wet weight of liver.

liver mitochondria [8] = assay: Oxidative phosphorylation, α-ketoglutarate as substrate; format: biochemical, rats; details: 5 μmoles; for Oxidative Phosphorylation α Ketoglutarate State 3: ADP stimulated respiration; for Oxidative Phosphorylation α Ketoglutarate State 4: basal respiration
Method: as §4

in vivo = details: mouse
[9] = Hydrolytic, air and moisture stability; details: concentrated HCl, 70 hr, room temperature
Sprague Dawley rats = assay: Red and white blood cell counts after 3 weeks dosing; format: in vivo; details: dosing for three weeks intraperitoneally, rats
Description: Hematocrits were also obtained.

[10] = pH 7.4, read-out: PMNs cAMP Level

SMILES | Anti-inflammatory Screen [1] | inhibition of the carrageenan induced edema in mouse foot pads [1] | Writhing Reflex (CF1 male mice) | Liver % Free Acid Phosphatase Activity, pH5 (Acid phosphatase [2]) | Liver % Free Cathepsin Activity, pH5 (Cathepsin [3]) | PMNs % Free Acid Phosphatase Activity, pH5 (Acid phosphatase [4]) | PMNs % Free Cathespin Activity, pH5 (Cathepsin [5]) | activity at 5 µmol (cAMP levels in PMNs; [10]) | inhibition at 1 µM [6] | activity at 1 µM [6] | Oxidative Phosphorylation Succinate State 3 (liver mitochondria [7]) | Oxidative Phosphorylation Succinate State 4 (liver mitochondria [7]) | Oxidative Phosphorylation α Ketoglutarate State 3 (liver mitochondria [8]) | Oxidative Phosphorylation α Ketoglutarate State 4 (liver mitochondria [8]) | LD50 (in vivo) | alteration of the red blood or white blood cell count/cu mm (Sprague Dawley rats) | further results
N#C[BH2-][NH3+] [XVII, ammonia-cyanoborane] | 51 % Control | at least 40% | 50 % Control | 75 ± 5 % Control | 48 ± 6 % Control | 100 ± 2 % Control | 26 ± 4 % Control | 93% | > 30% | 55 ± 6% | 60 ± 11 % Control | 112 ± 7 % Control | 40 ± 9 % Control | 149 ± 27 % Control | 30 mg/kg |  | loss of hydrogen (hydrolytic stability) [9]: 8%
[BH3-][NH+]1CCOCC1 [Compound II, O(CH2 CH2)2 NH.BH3] | 55 % Control | at least 40% | 15 % Control | 75 ± 8 % Control | 107 ± 6 % Control | 79 ± 5 % Control | 93 ± 7 % Control |  |  | 100 ± 5% | 66 ± 10 % Control | 115 ± 15 % Control | 50 ± 11 % Control | 97 ± 29 % Control |  | no alteration | inhibition of the writhing reflex (CF1 male mice; text summary of Table II): 80%; activity at 5 µmol (cAMP levels in PMNs; pH 7.4, 5 μmoles, in vitro, read-out: PMNs cAMP Level): 107%
C[N+](C)([BH2-]C#N)CCC#N [XIX, 3-Dimethylaminopropionitrile-cyanoborane] | 74 % Control |  | 89 % Control | 66 ± 4 % Control | 15 ± 3 % Control | 100 ± 9 % Control | 17 ± 5 % Control | 199% | > 30% | 53 ± 7% | 24 ± 7 % Control | 43 ± 16 % Control | 33 ± 8 % Control | 105 ± 33 % Control | 140 mg/kg | no alteration | inhibition of free proteolytic cathepsin activity of liver (Cathepsin [3]): at least 75%; inhibition of PMN cathepsin activity (Cathepsin [5]): at least 82%; activation at 5 µmol (cAMP levels in PMNs; read-out: increase of cyclic adenosine monophosphate levels in PMNs): 99%; both states 3 and 4 respiration with succinate (liver mitochondria [7]): inhibited
